Experimental data from ChEMBL document CHEMBL4823244, “Synthesis of norisoboldine derivatives and bioactivity assay for inducing the generation of regulatory T cells” (Bioorg Med Chem Lett, 2021).
Calls of active or inactive are those of the source. No cut-off for these calls is given here.

Tests used:
EL4 = assay: Cytotoxicity against mouse EL4 cells assessed as effect on cell viability at 1 to 10 uM measured after 72 hrs by MTT assay; type: cell-based; settings: el4, 72 h, dose 1-10 µM
T-cell [1] = assay: Induction of cell differentiation in anti-CD3/CD28 stimulated naive T-cells assessed as upregulation of CD4+ CD25+ cell frequency at 1 uM measured after 72 hrs by flow cytometry analysis; type: functional, cell-based
T-cell [2] = assay: Induction of cell differentiation in anti-CD3/CD28 stimulated naive T-cells assessed as upregulation of Foxp3 mRNA expression at 1 uM measured after 72 hrs by Q-PCR analysis; type: functional, cell-based
T-cell [3] = assay: Induction of cell differentiation in anti-CD3/CD28 stimulated naive T-cells assessed as number of Treg cells at 3 uM measured after 72 hrs by flow cytometry analysis (reference value: 24 %); type: functional
T-cell [4] = assay: Induction of cell differentiation in anti-CD3/CD28 stimulated naive T-cells assessed as number of Treg cells at 0.3 uM measured after 72 hrs by flow cytometry analysis (reference value: 24 %); type: functional
T-cell [5] = assay: Induction of cell differentiation in anti-CD3/CD28 stimulated naive T-cells assessed as number of Treg cells at 1 uM measured after 72 hrs by flow cytometry analysis (reference value: 24 %); type: functional
T-cell [6] = assay: Induction of cell differentiation in anti-CD3/CD28 stimulated naive T-cells assessed as upregulation of Foxp3 mRNA expression at 0.3 to 3 uM measured after 72 hrs by Q-PCR analysis; type: functional, cell-based; settings: dose 0.3-3 µM
T-cell [7] = assay: Induction of cell differentiation in anti-CD3/CD28 stimulated naive T-cells assessed as upregulation of IL-10 mRNA expression at 0.3 to 3 uM measured after 72 hrs by Q-PCR analysis; type: functional, cell-based; settings: dose 0.3-3 µM
Mus musculus [8] = assay: Antiinflammatory activity in DSS-induced ulcerative colitis mouse model assessed as reduction in DAI score at 28 to 56 mg/kg, po administered for 10 consecutive days; type: functional, organism-based; settings: dose 28-56 mg/kg, time 10.0 day
Mus musculus [9] = assay: Antiinflammatory activity in DSS-induced ulcerative colitis mouse model assessed as rescue of colon length shortening at 28 to 56 mg/kg, po administered for 10 consecutive days; type: functional, organism-based; settings: dose 28-56 mg/kg, time 10.0 day
Mus musculus [10] = assay: Antiinflammatory activity in DSS-induced ulcerative colitis mouse model assessed as reduction in MPO activity at 28 to 56 mg/kg, po administered for 10 consecutive days; type: functional, organism-based; settings: dose 28-56 mg/kg, time 10.0 day
Mus musculus [11] = assay: Antiinflammatory activity in DSS-induced ulcerative colitis mouse model assessed as protection against colon destruction at 28 to 56 mg/kg, po administered for 10 consecutive days by HE staining based histopathological analysis; type: functional, organism-based; settings: dose 28-56 mg/kg, time 10.0 day
Mus musculus [12] = assay: Antiinflammatory activity in DSS-induced ulcerative colitis mouse model assessed as protection against inflammation of colons at 28 to 56 mg/kg, po administered for 10 consecutive days by HE staining based histopathological analysis; type: functional, organism-based; settings: dose 28-56 mg/kg, time 10.0 day
Mus musculus [13] = assay: Induction of Treg cell differentiation in DSS- induced ulcerative colitis mouse model assessed as number of Treg cells in colonic lamina proprias at 28 mg/kg, po administered for 10 consecutive days by flow cytometry analysis (Rvb= 7.97%); type: functional; settings: time 10 day
Mus musculus [14] = assay: Induction of Treg cell differentiation in DSS- induced ulcerative colitis mouse model assessed as number of Treg cells in colonic lamina proprias at 56 mg/kg, po administered for 10 consecutive days by flow cytometry analysis (Rvb= 7.97%); type: functional; settings: time 10 day
Mus musculus [15] = assay: Induction of Treg cell differentiation in DSS- induced ulcerative colitis mouse model assessed as number of Treg cells in mesenteric lymph nodes at 28 mg/kg, po administered for 10 consecutive days by flow cytometry analysis (Rvb= 7.52%); type: functional; settings: time 10 day
Mus musculus [16] = assay: Induction of Treg cell differentiation in DSS- induced ulcerative colitis mouse model assessed as number of Treg cells in mesenteric lymph nodes at 56 mg/kg, po administered for 10 consecutive days by flow cytometry analysis (Rvb= 7.52%); type: functional; settings: time 10 day
Mus musculus [17] = assay: Induction of Treg cell differentiation in DSS- induced ulcerative colitis mouse model assessed as number of Treg cells in spleens at 28 mg/kg, po administered for 10 consecutive days by flow cytometry analysis (Rvb= 6.49%); type: functional; settings: time 10 day
Mus musculus [18] = assay: Induction of Treg cell differentiation in DSS- induced ulcerative colitis mouse model assessed as number of Treg cells in spleens at 56 mg/kg, po administered for 10 consecutive days by flow cytometry analysis (Rvb= 6.49%); type: functional; settings: time 10 day
Mus musculus [19] = assay: Induction of Treg cell differentiation in DSS- induced ulcerative colitis mouse model assessed as increase in Foxp3 mRNA level at 28 to 56 mg/kg, po administered for 10 consecutive days by Q-PCR analysis; type: functional, organism-based; settings: dose 28-56 mg/kg, time 10.0 day
Mus musculus [20] = assay: Induction of Treg cell differentiation in DSS- induced ulcerative colitis mouse model assessed as increase in IL-10 mRNA level at 28 to 56 mg/kg, po administered for 10 consecutive days by Q-PCR analysis; type: functional, organism-based; settings: dose 28-56 mg/kg, time 10.0 day

With `COc1cc2c(cc1O)CC1c3c(cc(OC)c(O)c3-2)CCN1C(=O)c1cc(C)cc(C)c1` (stereo not drawn) as the compound, how does the Activity (EL4) read?
Its Activity is “Non-Toxic”.

And the Activity (T-cell [1])?
The Activity was “inactive”.

And the Activity (T-cell [2])?
Its Activity is “Active”.

What about the Activity (T-cell [3]) of the same compound?
The Activity was 36%.

What about the Activity (T-cell [4]) of the same compound?
Its Activity is 25.2%.

What about the Activity (T-cell [5]) of the same compound?
The Activity was 31.1%.

What about the Activity (T-cell [6]) of the same compound?
The Activity was “Active”.

And the Activity (T-cell [7])?
Its Activity is “Active”.

What about the Activity (Mus musculus [8]) of the same compound?
Its Activity is “Active”.

And the Activity (Mus musculus [9])?
The Activity was “Active”.

And the Activity (Mus musculus [10])?
Its Activity is “Active”.

What about the Activity (Mus musculus [11]) of the same compound?
Its Activity is “Active”.

And the Activity (Mus musculus [12])?
The Activity was “Active”.

And the Activity (Mus musculus [13])?
The Activity was 13.57%.

And the Activity (Mus musculus [14])?
The Activity was 14.5%.

What about the Activity (Mus musculus [15]) of the same compound?
The Activity was 11.55%.

What about the Activity (Mus musculus [16]) of the same compound?
Its Activity is 12.32%.

And the Activity (Mus musculus [17])?
Its Activity is 7.03%.

And the Activity (Mus musculus [18])?
The Activity was 7.87%.

What about the Activity (Mus musculus [19]) of the same compound?
Its Activity is “Active”.

And the Activity (Mus musculus [20])?
Its Activity is “Active”.

`COc1cc2c(cc1O)CC1c3c(cc(OC)c(O)c3-2)CCN1Cc1ccccc1` (stereo not drawn) was tested. Which Activity (EL4) did it give?
The Activity was “Non-Toxic”.

For `COc1cc2c(cc1O)CC1c3c(cc(OC)c(O)c3-2)CCN1C(=O)c1ccc(Cl)cc1` (stereo not drawn), which Activity (EL4) is on record?
Its Activity is “Non-Toxic”.

Which Activity (EL4) does the source give for `COc1cc2c(cc1O)CC1c3c(cc(OC)c(O)c3-2)CCN1Cc1ccc(C#N)cc1` (stereo not drawn) here?
The Activity was “Non-Toxic”.

For `COc1cc2c(cc1O)CC1c3c(cc(OC)c(O)c3-2)CCN1Cc1ccc(F)cc1` (stereo not drawn), which Activity (EL4) is on record?
Its Activity is “Non-Toxic”.

Which Activity (EL4) does the source give for `COc1cc2c(cc1O)CC1c3c(cc(OC)c(O)c3-2)CCN1Cc1cc(C)cc(C)c1` (stereo not drawn) here?
The Activity was “Non-Toxic”.

Which Activity (EL4) does the source give for `COc1cc2c(cc1O)CC1c3c(cc(OC)c(O)c3-2)CCN1Cc1ccc(Br)cc1` (stereo not drawn) here?
The Activity was “Non-Toxic”.

For `COc1cc2c(cc1O)CC1c3c(cc(OC)c(O)c3-2)CCN1Cc1ccc(Cl)cc1` (stereo not drawn), which Activity (EL4) is on record?
Its Activity is “Non-Toxic”.

And the Activity (T-cell [1])?
The Activity was “inactive”.

And the Activity (T-cell [2])?
Its Activity is “Active”.

With `COc1cc(CN2CCc3cc(OC)c(O)c4c3C2Cc2cc(O)c(OC)cc2-4)cc(OC)c1` (stereo not drawn) as the compound, how does the Activity (EL4) read?
The Activity was “Non-Toxic”.

Which Activity (EL4) does the source give for `COc1cc2c(cc1O)CC1c3c(cc(OC)c(O)c3-2)CCN1Cc1ccc([N+](=O)[O-])cc1` (stereo not drawn) here?
The Activity was “Non-Toxic”.

With `COc1cc2c(cc1O)CC1c3c(cc(OC)c(O)c3-2)CCN1C(=O)c1ccc([N+](=O)[O-])cc1` (stereo not drawn) as the compound, how does the Activity (EL4) read?
Its Activity is “Non-Toxic”.
